In publication PMC7993140 (Medicinal chemistry research : an international journal for …, 2020):
pIC50: −log10 of the molar value.

biological target: T1, TDP2 (14M_zTDP2) (Danio rerio, UniProt Q5XJA0); experiment: 14M_zTDP2 fluorescence-based biochemical assay; details: at concentrations up to 50 μM
T1 sequence (Q5XJA0 121-369): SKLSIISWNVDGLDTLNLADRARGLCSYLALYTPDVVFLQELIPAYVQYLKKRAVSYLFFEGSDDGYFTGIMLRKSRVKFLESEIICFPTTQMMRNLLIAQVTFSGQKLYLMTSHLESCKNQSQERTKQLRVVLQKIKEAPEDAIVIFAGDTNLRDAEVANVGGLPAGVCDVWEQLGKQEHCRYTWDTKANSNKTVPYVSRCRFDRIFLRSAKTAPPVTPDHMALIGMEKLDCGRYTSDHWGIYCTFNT

| TDP2 inhibition at 50 μM | Structure (SMILES) |
| --- | --- |
| no activity | Cn1cccc1C=C1C(=O)NC(=O)c2ccccc21 [12e, 4-((1-methyl-1H-pyrrol-2-yl)methylene)isoquinoline-1,3(2H,4H)-dione] |
| no activity | O=C1NC(=O)c2ccccc2C1=Cc1cccs1 [12f, 4-(thiophen-2-ylmethylene)isoquinoline-1,3(2H,4H)-dione] |
| no activity | O=C1NC(=O)c2ccccc2C1=Cc1ccc[nH]1 [12d, 4-((1H-pyrrol-2-yl)methylene)isoquinoline-1,3(2H,4H)-dione] |
| no inhibition | O=C1NC(=O)c2ccccc2/C1=C/NCc1ccc(O)cc1 [11b, (Z)-4-(((4-hydroxybenzyl)amino)methylene)isoquinoline-1,3(2H,4H)-dione] |
| no activity | O=C1NC(=O)c2ccccc2C1=Cc1ccsc1 [12g, 4-(thiophen-3-ylmethylene)isoquinoline-1,3(2H,4H)-dione] |

same assay, conditions: no concentration stated at the place

| TDP2 inhibition | Structure (SMILES) |
| --- | --- |
| reasonable potency | O=C1NC(=O)c2ccccc2C1=Cc1ccncc1 [12c, 4-(pyridin-4-ylmethylene)isoquinoline-1,3(2H,4H)-dione] |

same assay, conditions: read-out: IC50 (TDP2 inhibition); in-house fluorescence-based biochemical assay; 25 °C, 60 min

| pIC50 | Structure (SMILES) |
| --- | --- |
| 5.32 | O=C1NC(=O)c2ccccc2C1=Cc1ccc(C(=O)O)cc1 [12q, 4-((1,3-dioxo-2,3-dihydroisoquinolin-4(1H)-ylidene)methyl)benzoic acid] |
| 4.89 | O=C1NC(=O)c2ccccc2C1=Cc1ccc2[nH]ccc2c1 [12i, 4-((1H-indol-5-yl)methylene)isoquinoline-1,3(2H,4H)-dione] |
| 4.72 | O=C1NC(=O)c2ccccc2C1=Cc1ccc2[nH]ncc2c1 [12h, 4-((1H-indazol-5-yl)methylene)isoquinoline-1,3(2H,4H)-dione] |
| 5.00 | O=C1NC(=O)c2ccccc2C1=Cc1ccc(O)cc1 [12k, 4-(4-hydroxybenzylidene)isoquinoline-1,3(2H,4H)-dione] |
| 4.66 | O=C1Cc2ccccc2C(=O)N1 [compound 8, isoquinoline-1,3-dione, reference compound] |

system: TDP2; experiment: not given; details: read-out: previously reported IC50; previously reported value; cited from earlier work

| Structure (SMILES) | pIC50 |
| --- | --- |
| O=C1Cc2ccccc2C(=O)N1 [compound 8, isoquinoline-1,3-dione, reference compound] | 4.60 |
